The text below walks through data of the supplement of paper PMC3493320.

As usually defined, the IC50 is the midpoint of a concentration-inhibition curve. Higher therefore signals weaker potency in that assay.

This assay deals with NCI-H295R. Briefly: IC50 (antiproliferative, ATP content). Particulars: 48 h. A digest of the protocol: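 Adrenocortical carcinoma cells (1500 per well) were seeded in serum-free ITS-supplemented DMEM in 1536-well plates and cultured overnight. Library compounds were then pin-transferred at 8 final concentrations from 0.6 nM to 46 µM, and plates were kept 48 h at 37 °C, 5% CO2. ATP was read as CellTiter-Glo luminescence after 20 min at room temperature and normalised to vehicle (0%) and positive control (100% inhibition). IC50 came from four-parameter logistic fits; compounds with no concentration response were recorded as above the top dose.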
Take `CN(C/C=C/c1ccccc1)Cc1cccc2ccccc12.Cl`: the IC50 is over 46 µM.
Then `CS(=O)(=O)CCNCc1ccc(-c2ccc3ncnc(Nc4ccc(OCc5cccc(F)c5)c(Cl)c4)c3c2)o1`, with over 46 µM.
Then `CC(CCc1ccc(O)cc1)NCC(O)c1ccc(O)cc1.Cl` (stereo unspecified), with over 46 µM; and `COc1cc(NS(=O)(=O)c2ccc(N)cc2)nc(OC)n1`, with over 46 µM; and `O=C(N1C)N[C@](C1=O)([C@@]2=CC=CC=C2)CC`, with over 46 µM.
Then `CC(C)Cc1ccc(CC(=O)O)cc1`, with over 46 µM.
In turn, `N[C@H](C(=O)O)c1ccc(O)cc1` registered an IC50 of over 46 µM.
Then `CC(C)[N+](C)(CCOC(=O)C1c2ccccc2Oc2ccccc21)C(C)C.[Br-]`, with over 46 µM.
Consider `CN1C[C@@H]2C[C@H]1CN2c1cc2c(cc1F)c(=O)c(C(=O)O)cn2C1CC1`, for which the IC50 was over 46 µM.
Then `OC(=O)[C@@H](C(C)C)N(Cc1ccc(cc1)c2ccccc2C\3=N\N=N/N/3)C(=O)CCCC`, with over 46 µM.
Consider `CCOC(=O)c1ncn2c1CN(C)C(=O)c1cc(F)ccc1-2`, for which the IC50 was over 46 µM.
Then `CS(=O)(=O)Nc1cc2\C=C(/Nc2cc1)C(=O)N3CCN(CC3)c4ncccc4NC(C)C`, with over 46 µM; and `O=C1N(C(C(O)=O)=C(CSC4=NN=NN4C)CS2)[C@@]2([H])[C@@]([H])1NC([C@@H]([C@@](C=C5)=CC=C5O)NC(C3=C(O)C=C(C)N=C3)=O)=O`, with over 46 µM; and `CC(=O)Nc1ccc(C(=O)O)cc1`, with over 46 µM.
The figure for `COc1ccc(CCN(C)CCCC(C#N)(c2cc(OC)c(OC)c(OC)c2)C(C)C)cc1OC.Cl` (stereo unspecified) is over 46 µM; for `Cl.Clc1ccc(C(OCCN2CCCCC2)c2ccccc2)cc1` (stereo unspecified) it is over 46 µM; for `Cc1ncc(CO)c(C=O)c1O` it is over 46 µM.
As to `O=P(O)(O)CP(=O)(O)O`, the IC50 was over 46 µM.
Compound `c1ccc2c(c1)sc1ccccc12` gave an IC50 of over 46 µM.
`Oc1ccc(C2CNCCc3c2cc(O)c(O)c3Cl)cc1` (stereo unspecified) yielded an IC50 of over 46 µM.
The figure for `CCCCCCCCCCCCCCCCCC(=O)OCC(O)CO` (stereo unspecified) is over 46 µM.
For `CCN(CC)C(=O)C(Cl)=C(C)OP(=O)(OC)OC`, the IC50 was over 46 µM.
The figure for `CC1(C)O[C@@H]2CC3C4C[C@H](F)C5=CC(=O)C=C[C@]5(C)C4[C@@H](O)C[C@]3(C)[C@]2(C(=O)CO)O1` (stereo partly specified) is over 46 µM; for `COc1cc2c3cc1Oc1cc(ccc1O)C[C@@H]1c4c(cc(OC)c(O)c4Oc4ccc(cc4)C[C@@H]3N(C)CC2)CC[N+]1(C)C.Cl.[Cl-]` it is over 46 µM; for `Nc1ccc(C(=O)NCC(=O)O)cc1` it is over 46 µM.
The figure for `COP(=S)(OC)Oc1ccc(SC)c(C)c1` is over 46 µM; for `BrCCCBr.CN(C)CCCCCCN(C)C` it is over 46 µM.
Then `NCCc1cnc[nH]1`, with over 46 µM; and `O=C([O-])CCCc1ccccc1.[Na+]`, with over 46 µM; and `C[C@]12C[C@H]3S[C@H]3C[C@@H]1CC[C@@H]1[C@@H]2CC[C@]2(C)[C@@H](O)CC[C@@H]12`, with over 46 µM.
Take `C[C@@H]1CC[C@@]2(OC1)O[C@H]1C[C@H]3[C@@H]4CC[C@H]5C[C@@H](O)CC[C@]5(C)[C@H]4CC(=O)[C@]3(C)[C@H]1[C@@H]2C`: the IC50 was over 46 µM.
In turn, `CCCCC1=NC2(CCCC2)C(=O)N1Cc1ccc(-c2ccccc2-c2nnn[nH]2)cc1` showed an IC50 of over 46 µM.
With `C[C@@H](CC)C(=O)O[C@H]2C[C@@H](C)\C=C3\C=C/[C@H](C)[C@H](CC[C@@H]1C[C@@H](O)CC(=O)O1)[C@@H]23`, the IC50 is over 46 µM.
The compound `O=[C@@](OCN2C(N(CC#C)CC2=O)=O)[C@H]1C(C)(C)[C@@H]1\C=C(C)/C` displayed an IC50 of over 46 µM.
Take `CCN(CC)CC#CCOC(=O)C(O)(c1ccccc1)C1CCCCC1.Cl` (stereo unspecified): the IC50 is over 46 µM.
`C[C@]12CCC(=O)C=C1C=C[C@@H]1[C@@H]2CC[C@@]2(C)[C@H]1CC[C@@]2(O)CCC(=O)[O-].[K+]` registered an IC50 of over 46 µM.
